Experimental data published in patent US5371102A, “Compositions and methods of inhibiting thyroid activity” (priority 1993, dated 1994).

Tests used:
[1] = biological target: T1, TPX (Sus scrofa, UniProt P09933); assay: TPX-catalyzed iodide oxidation (triiodide formation), spectrophotometric; type: biochemical, hog
T1 sequence (P09933 15-926): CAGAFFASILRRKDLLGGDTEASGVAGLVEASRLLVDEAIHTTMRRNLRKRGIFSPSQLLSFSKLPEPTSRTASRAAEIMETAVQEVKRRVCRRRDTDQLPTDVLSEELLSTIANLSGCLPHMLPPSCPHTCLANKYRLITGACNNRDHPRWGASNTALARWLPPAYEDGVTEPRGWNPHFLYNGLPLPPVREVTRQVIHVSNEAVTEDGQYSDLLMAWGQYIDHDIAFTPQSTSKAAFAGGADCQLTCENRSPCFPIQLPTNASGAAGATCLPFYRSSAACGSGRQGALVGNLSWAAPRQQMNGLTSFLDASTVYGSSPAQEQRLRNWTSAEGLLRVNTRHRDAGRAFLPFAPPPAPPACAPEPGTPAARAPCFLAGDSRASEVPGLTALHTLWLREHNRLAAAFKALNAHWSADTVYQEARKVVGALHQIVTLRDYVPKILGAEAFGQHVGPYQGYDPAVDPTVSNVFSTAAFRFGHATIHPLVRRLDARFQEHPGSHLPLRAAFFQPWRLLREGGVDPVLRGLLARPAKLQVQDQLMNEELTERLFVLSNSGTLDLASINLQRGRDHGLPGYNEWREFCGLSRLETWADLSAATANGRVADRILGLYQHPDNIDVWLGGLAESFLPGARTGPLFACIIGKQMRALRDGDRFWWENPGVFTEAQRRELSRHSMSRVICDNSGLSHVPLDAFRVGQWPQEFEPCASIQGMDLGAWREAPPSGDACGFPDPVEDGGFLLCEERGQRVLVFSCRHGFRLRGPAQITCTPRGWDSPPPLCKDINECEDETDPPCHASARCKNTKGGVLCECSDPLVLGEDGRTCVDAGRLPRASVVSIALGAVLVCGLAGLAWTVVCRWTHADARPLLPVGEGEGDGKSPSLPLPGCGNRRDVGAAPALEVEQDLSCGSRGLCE
Text: (§1) Materials used in the examples below were obtained from the following sources. Bovine LPX, bovine liver catalase, glucose oxidase, 30% hydrogen peroxide, glucose, guaiacol, ABTS and deuterium oxide were purchased from Sigma Chemical Company. Selenium dioxide, MBI ^13 CH3 I and PBA were purchased from Aldrich Chemical Company and PBA was purified as previously described by Fieset et al., Reagents for Organic Synthesis, Vol. I, pp.135-139, John Wiley and Sons, N.Y. (1967). LPX purity was checked by PAGE, as described by Doerge, D.R., et al. in, Biochem. Pharmacol., Vol.36, pp.972-974 (1986). TPX was purified from hog thyroids obtained from a local slaughterhouse by published procedures. Doerge & Takazowa, Chemical Research in Toxicology, Vol. 3, pp. 98-101 (1990). TPX purity was determined by LC and its concentration determined spectophotometrically. Hydroperoxide concentrations were determined by iodometric titration, as described by Kolthoff, et al., in "Quantitative Chemical Analysis", Macmillan, London, pp.842-860 (1969). MMBI, and BI were synthesized by published procedures as described by Doerge, D.R., Biochem, Vol. 27, pp. 3697-3700 (1988) and were recrystallized from aqueous ethanol. MeBI was purified by distillation and DMeBI^+ was synthesized and purified by recrystallization from ethyl acetate/methanol. 1-^13 C-MMBI was synthesized from ^13 CH3 I according to the procedure disclosed by Doerge, D.R., in, J. Lab. Comp. and Radiopharm., Vol.25, pp.985-990 (1988). PPHP and PPA were prepared, purified and analyzed as previously described by Doerge, Biochem, Vol.27, p.11 (1988). The methyl ester of 1-methyl-benzimidazole-2-sulfinic acid was prepared by addition of hydrogen peroxide (5 equivalents of a 10 M solution) to MMBI (0.1 M) in methanol. The products, MeBI and the ester, were obtained following preparative TLC on silica (Uniplate, Analtech Co., Newark, DL) using 5% methanol/chloroform as eluant. […]
1,3-diacetyl MBI (AczMBI) was synthesized according to the method published by Doerge et al., Syn. […] Varying quantities of Ac2 MBI were incubated with TPX, H2 O2, and I^-. […]

[2] = biological target: T1, TPX; assay: TPX/hydrogen peroxide-catalyzed oxidation of ABTS and guaiacol; type: biochemical, hog
Text: as §1, with “MeBI was purified by distillation and DMeBI^+ was synthesized and purified by recrystallization from ethyl acetate/methanol. 1-^13 C-MMBI was synthesized from ^13 CH3 I according to the procedure disclosed by Doerge, D.R., in, J. Lab. Comp. and Radiopharm., Vol.25, pp.985-990 (1988).” left out, “(1988).” for “(1988). The methyl ester of 1-methyl-benzimidazole-2-sulfinic acid was prepared by addition of hydrogen peroxide (5 equivalents of a 10 M solution) to MMBI (0.1 M) in methanol. The products, MeBI and the ester, were obtained following preparative TLC on silica (Uniplate, Analtech Co., Newark, DL) using 5% methanol/chloroform as eluant.”

[3] = biological target: T2, LPX (Bos taurus, UniProt P80025); assay: LPX-mediated oxidative turnover of DMMBI and hydroperoxide; type: biochemical, bovine
T2 construct: purchased Sigma Chemical Company
Text: Materials used in the examples below were obtained from the following sources. Bovine LPX, bovine liver catalase, glucose oxidase, 30% hydrogen peroxide, glucose, guaiacol, ABTS and deuterium oxide were purchased from Sigma Chemical Company. Selenium dioxide, MBI ^13 CH3 I and PBA were purchased from Aldrich Chemical Company and PBA was purified as previously described by Fieset et al., Reagents for Organic Synthesis, Vol. I, pp.135-139, John Wiley and Sons, N.Y. (1967). LPX purity was checked by PAGE, as described by Doerge, D.R., et al. in, Biochem. Pharmacol., Vol.36, pp.972-974 (1986). TPX was purified from hog thyroids obtained from a local slaughterhouse by published procedures. Doerge & Takazowa, Chemical Research in Toxicology, Vol. 3, pp. 98-101 (1990). TPX purity was determined by LC and its concentration determined spectophotometrically. Hydroperoxide concentrations were determined by iodometric titration, as described by Kolthoff, et al., in "Quantitative Chemical Analysis", Macmillan, London, pp.842-860 (1969). MMBI, and BI were synthesized by published procedures as described by Doerge, D.R., Biochem, Vol. 27, pp. 3697-3700 (1988) and were recrystallized from aqueous ethanol. MeBI was purified by distillation and DMeBI^+ was synthesized and purified by recrystallization from ethyl acetate/methanol. 1-^13 C-MMBI was synthesized from ^13 CH3 I according to the procedure disclosed by Doerge, D.R., in, J. Lab. Comp. and Radiopharm., Vol.25, pp.985-990 (1988). PPHP and PPA were prepared, purified and analyzed as previously described by Doerge, Biochem, Vol.27, p.11 (1988). The methyl ester of 1-methyl-benzimidazole-2-sulfinic acid was prepared by addition of hydrogen peroxide (5 equivalents of a 10 M solution) to MMBI (0.1 M) in methanol. The products, MeBI and the ester, were obtained following preparative TLC on silica (Uniplate, Analtech Co., Newark, DL) using 5% methanol/chloroform as eluant.
The distinct methyl and aromatic proton resonances of DMMBI and DMeBI^+ in the ^1 H-NMR spectrum provide a sensitive method to detect enzymatic transformation of DMMBI. DMMBI (100 μM) was incubated with LPX (50 μM), iodide ion (5 mM) and hydrogen peroxide (300 μM) in 10 mls of 0.01 M phosphate buffer solution, pH 7.0. The solution was incubated at 25° C. for 1 min followed by addition of catalase. The sample was then lyophilized and analyzed by ^1 H-NMR. The solids were dissolved in 1 ml D2 O and lyophilized again. Proton-deuterium exchange was repeated twice more and the solids were dissolved in 0.5 ml D2 O containing DSS. The HOD peak was suppressed in a one pulse presaturation experiment where the HOD peak was irradiated for 2 sec prior to acquisition of sample resonances. The ^1 H-NMR spectra of DMeBI^+ and DMMBI were similarly recorded in D2 O.
PPHP is a chromophoric hydroperoxide interchangeable with hydrogen peroxide in many peroxidase-catalyzed reactions. LPX-catalyzed turnover of PPHP gives PPA, the corresponding alcohol, which can be quantitated by HPLC. The use of PPHP permits a direct correlation of LPX-catalyzed substrate consumption and product formation with actual hydroperoxide turnover.

[4] = reaction of DMMBI with preformed triiodide; conditions: triiodide formed by H2O2, LPX and iodide ion
Text: When triiodide ion was formed by addition of hydrogen peroxide to LPX and iodide ion, addition of DMMBI caused rapid quenching of triiodide (ca. 1 sec) and DMeBI^+ was the sole product. Triiodide produced by addition of […] to aqueous iodide ion reacted identically with DMMBI.

[5] = PPHP-supported LPX-catalyzed iodination

inhibition of iodide ion oxidation ([1]; TPX/hydrogen peroxide): inhibits only iodide ion oxidation | turnover events without LPX inactivation ([3]; LPX, hydrogen peroxide and iodide ion): > 300 turnover events | moles of PPA formed per mole of DMMBI consumed [3, 5]: 3.2 ± 0.2 mol | moles of PPHP consumed per mole of DMMBI consumed [3, 5]: 3.2 mol
Compound: Cn1c(=S)n(C)c2ccccc21 [DMMBI, 1,3-dimethylbenzimidazole-2-thione]
effect on triiodide formation ([1]; TPX, H2O2 and I-): causes a lag in triiodide formation, followed by an increase in the rate of triiodide formation approximating the control rate | effect on oxidation of ABTS and guaiacol [2]: does not affect LPX or TPX/hydrogen peroxide-catalyzed oxidation of the substrates ABTS and guaiacol | conversion of DMMBI to DMeBI+ ([3]; LPX, 3 equivalents H2O2 and iodide ion): quantitative conversion of DMMBI to DMeBI^+ | conversion of DMMBI to DMeBI+ ([3]; controls: no iodide ion, no LPX or no hydrogen peroxide): no conversion of DMMBI to DMeBI^+ was observed | time of triiodide quenching [4]: ca. 1 sec
